{"source": "patent US12383527B2", "about": "“Methods for treating triple negative breast cancer using salvianolic acid B” (HOWARD UNIVERSITY, priority 2018, dated 2025)", "key": {"cyclin B1": {"test_system": "cyclin B1", "assay": "Western blot of cyclin B1 expression in MDA and MCF-7 cells", "format": "cell-based, human", "settings": "doxorubicin 1 μM, 24 hours", "procedure": "(§1) The expression of two cell cycle-related proteins—cyclin A and cyclin B1—was checked by Western blot. The expression of cyclin A and cyclin B1 was normalized by the expression of the internal control β-actin (lower panel). The cells were treated with 50 μM and 100 μM Sal-B, respectively, for 24 hours. Doxorubicin (0.1 μM and 1 μM) was used as a control. […] The results may be explained by that the cell cycle progression is controlled by a large set of molecules, although cyclin B1 is a key component in the control of cell cycle progression from G2 to M phase.\n(§2) The immunohistochemical results were consistent with those from Western blotting (FIG. 7, panel A). Western blot analysis was used to determine the expression of apoptosis-related proteins Bcl-XL, survivin, caspase-3 and caspase-8 (FIG. 7, panel A). β-actin was used as an internal control for Western blotting. The MCD-7 and MDA cells were treated with Sal-B (50 μM and 100 μM) and doxorubicin (0.1 μM and 1 μM), respectively, for 24 hours. Proteins were extracted from the cells with RIPA lysis buffer (Santa Cruz Biotechnology, Santa Cruz, CA) and the protein concentrations were quantified with Bio-Rad protein quantification kit. Whole-cell proteins were separated on 8% SDS-polyacrylamide gel, transferred to the polyvinylidene difluoride membrane (Bio-Rad), and then probed with the indicated primary antibodies overnight at 4° C. Washed blots were then incubated with horseradish peroxidase-conjugated anti-rabbit, anti-mouse, or anti-goat antibody (Santa Cruz Biotechnology), respectively, for one hour at room temperature. Blots were developed and visualized with ECL detection system (Bio-Rad)."}, "survivin [1]": {"test_system": "survivin", "assay": "Western blot of survivin expression in MDA and MCF-7 cells", "format": "cell-based, human", "settings": "doxorubicin 0.1 μM and 1 μM, 24 hours", "procedure": "as §2"}, "cyclin A": {"test_system": "cyclin A", "assay": "Western blot of cyclin A expression in MDA and MCF-7 cells", "format": "cell-based, human", "settings": "doxorubicin 1 μM, 24 hours", "procedure": "as §1\nas §2, with “Washed blots were then incubated with horseradish peroxidase-conjugated anti-rabbit, anti-mouse, or anti-goat antibody (Santa Cruz Biotechnology), respectively, for one hour at room temperature. Blots were developed and visualized with ECL detection system (Bio-Rad).” left out"}, "[2]": {"test_system": "proliferating cell nuclear antigen (PCNA)", "assay": "Immunohistochemical staining of PCNA in MDA tumor xenografts", "format": "in vivo, athymic nude mice", "settings": "doxorubicin 4 mg/kg every four weeks; versus untreated; P<0.05", "procedure": "(§3) Human tumor xenografts in athymic nude mice. […] The animal protocol was approved by the Howard University Animal Care and Use Committee. Four-week-old female athymic nude mice (Nu/Nu) were obtained from Harlan Sprague Dawley (Indianapolis, IN). All mice were provided the Harlan Teklad #2018 Global 18% protein rodent diet and water ad libitum. Mice were housed in temperature-controlled rooms (74±2° F.) with a 12-hour alternating light-dark cycle. MDA cells (3×10^6/50 μL/spot) were subcutaneously injected into the both sides of lower back of mice using a 27-gauge needle. […]\n(§4) Immunohistochemical staining was performed as described previously (Hao Y, et al., “Enforced expression of miR-101 inhibits prostate cancer cell growth by modulating the COX-2 pathway in vivo,” Cancer Prev Res (Phila), 2011; 4: 1073-1083). […] For the quantification, ten high-magnification (40×) fields were randomly selected from each slide of tumors and the positive cells were counted. The protein expression was expressed as the average number of positive cells per high magnification field."}, "MCF-7 cells": {"test_system": "MCF-7 cells", "assay": "Luciferase assay (bioluminescent cell viability)", "format": "cell-based, human", "settings": "24 hours", "procedure": "(§5) Cell lines and culture. MCF-7 and MDA human breast cancer cell lines stably transfected with firefly luciferase gene were purchased from Caliper Life Sciences (Hanover, MD). MCF-7 cells were cultured in DMEM medium (Invitrogen, Carlsbad, CA) and MDA cells were grown in DMEM/F-12 (1:1) medium (Invitrogen). Both media were supplemented with 10% fetal bovine serum (Invitrogen) and antibiotic-antimycotic mixture (100 IU/ml penicillin and 100 μg/ml streptomycin; Cellgro). The cells were maintained at 37° C. in 5% CO2. All experiments were performed when the cells were in the logarithmic phase of growth. Luciferase assay. The MDA cell line and the hormone receptor-positive MCF-7 cell line were utilized to test the effectiveness of Sal-B and doxorubicin on cancer cell viability. Both cell lines had been stably transfected and expressed the firefly luciferase gene. The bioluminescent signal intensity reflects the cell metabolic activity, being highly correlated with the cell viability. Cell viability was evaluated using the sensitive bioluminescent optical imaging. The cells (10,000 per well) were seeded in flat-bottomed 96-well plates in the above-identified medium with 10% fetal bovine serum and allowed to grow overnight. The old medium was then replaced with fresh medium containing different concentrations of Sal-B (50, 100, 150, and 200 μM) or doxorubicin (0.1, 0.2, 0.5, and 1 μM). The cells were further cultured for 24 hours and D-luciferin was added to each well and mixed gently (final concentration of 150 μ/ml). The signal was measured with the Xenogen IVIS 200 imaging system (Caliper Life Sciences, Hopkinton, MA, USA). The system was equipped with a highly sensitive, cooled charge-coupled device (CCD) camera and a light-tight specimen box. Imaging and quantification of signals was controlled by the acquisition and analysis software Living Image 3.0. The bioluminescent signal from the cells in each well was expressed as total flux (photons per second (p/s)). At least five replicates were performed in each experiment, and each experiment was repeated at least three times. The representative data are presented."}, "MDA-MB-231 cells": {"test_system": "MDA-MB-231 cells", "assay": "Luciferase assay (bioluminescent cell viability)", "format": "cell-based, human", "settings": "MDA cells, 24 hours", "procedure": "as §5"}, "Bcl-xL [3]": {"test_system": "Bcl-xL", "assay": "Western blot of Bcl-xL expression in MDA and MCF-7 cells", "format": "cell-based, human", "settings": "doxorubicin 0.1 μM and 1 μM, 24 hours", "procedure": "as §2"}, "MDA tumor xenografts [4]": {"test_system": "MDA tumor xenografts", "assay": "Human tumor xenografts in athymic nude mice, tumor weight", "format": "in vivo", "settings": "doxorubicin 4 mg/kg every four weeks, intraperitoneal; day 37; mean±SD; untreated control 0.81±0.12 g", "procedure": "Human tumor xenografts in athymic nude mice. […] The animal protocol was approved by the Howard University Animal Care and Use Committee. Four-week-old female athymic nude mice (Nu/Nu) were obtained from Harlan Sprague Dawley (Indianapolis, IN). All mice were provided the Harlan Teklad #2018 Global 18% protein rodent diet and water ad libitum. Mice were housed in temperature-controlled rooms (74±2° F.) with a 12-hour alternating light-dark cycle. MDA cells (3×10^6/50 μL/spot) were subcutaneously injected into the both sides of lower back of mice using a 27-gauge needle. On day 10 after cell implantation, the mice with tumors (˜5 mm in diameter) were randomly divided into Sal-B treated, doxorubicin treated, and untreated groups (five mice per group), and were administrated Sal-B (80 mg/kg, three times per week), doxorubicin (4 mg/kg, every four weeks) and 0.9% saline (50 μl, three times per week), respectively, by intraperitoneal injection for a total of 37 days. […] All mice were sacrificed on day 37."}, "ER-α": {"test_system": "ER-α", "assay": "Western blot of ER-α expression in MCF-7 cells", "format": "cell-based, human", "settings": "doxorubicin at the high dose (1 μM)"}, "Bcl-xL [5]": {"test_system": "Bcl-xL", "assay": "Immunohistochemical staining of Bcl-xL in MDA tumor xenografts", "format": "in vivo, athymic nude mice", "settings": "doxorubicin 4 mg/kg every four weeks; versus untreated tumors; P<0.05", "procedure": "as §3, §4"}, "ceramides": {"test_system": "ceramides", "assay": "Immunohistochemistry of ceramides in MDA tumor xenografts", "format": "in vivo, athymic nude mice", "settings": "doxorubicin 4 mg/kg every four weeks; untreated control 2.3±0.7; P<0.05", "procedure": "as §3\nImmunohistochemical staining was performed as described previously (Hao Y, et al., “Enforced expression of miR-101 inhibits prostate cancer cell growth by modulating the COX-2 pathway in vivo,” Cancer Prev Res (Phila), 2011; 4: 1073-1083). […] For the quantification, ten high-magnification (40×) fields were randomly selected from each slide of tumors and the positive cells were counted. The protein expression was expressed as the average number of positive cells per high magnification field. […]"}, "MDA tumor xenografts [6]": {"test_system": "MDA tumor xenografts", "assay": "TUNEL assay of apoptotic cells in MDA tumor xenografts", "format": "in vivo, athymic nude mice", "settings": "doxorubicin 4 mg/kg every four weeks; untreated tumors 3.1±1.8; P<0.05", "procedure": "as §3\nApoptotic cells in MDA tumor xenografts were also analyzed by a terminal deoxynucleotidyl transferase-mediated dUTP nick end labeling (TUNEL) assay using the TdT-FragEL DNA Fragmentation Detection Kit (EMD Millipore, Burlington, MA) as previously described (Li H, et al., “Cellular uptake and anticancer activity of salvianolic acid B phospholipid complex loaded nanoparticles in head and neck cancer and precancer cells,” Colloids Surf B Biointerfaces. 2016; 147: 65-72). […]"}, "survivin [7]": {"test_system": "survivin", "assay": "Immunohistochemical staining of survivin in MDA tumor xenografts", "format": "in vivo, athymic nude mice", "settings": "doxorubicin 4 mg/kg every four weeks; versus untreated group", "procedure": "as §3, §4"}}, "data": [{"smiles": "COc1cccc2c1C(=O)c1c(O)c3c(c(O)c1C2=O)C[C@@](O)(C(=O)CO)C[C@@H]3O[C@H]1C[C@H](N)[C@H](O)[C@H](C)O1", "note": "[doxorubicin, reference compound]", "values": [{"measurement": "cyclin B1 expression (normalized to β-actin)", "setting": "cyclin B1; MCF-7 cells", "value": "reduction"}, {"measurement": "cyclin B1 expression (normalized to β-actin)", "setting": "cyclin B1; MDA cells", "value": "reduction"}, {"measurement": "survivin protein expression", "setting": "survivin [1]; MCF-7 cells", "value": "downregulated"}, {"measurement": "survivin protein expression", "setting": "survivin [1]; MDA cells", "value": "downregulated"}, {"measurement": "cyclin A expression (normalized to β-actin)", "setting": "cyclin A; MCF-7 cells", "value": "reduction"}, {"measurement": "cyclin A expression (normalized to β-actin)", "setting": "cyclin A; MDA cells", "value": "reduction"}, {"measurement": "PCNA levels in tumor xenografts", "setting": "[2]", "value": "higher in untreated MDA tumor xenografts"}, {"measurement": "cytotoxicity at 0.5 µM", "setting": "MCF-7 cells; Homo sapiens, MCF7, MCF-7 cells, doxorubicin 0.5 μM, read-out: reduction of cell viability", "value": "~67", "unit": "%"}, {"measurement": "further reduction of cell viability versus 0.5 μM", "setting": "MCF-7 cells; MCF-7 cells, doxorubicin 1 μM", "value": "No further reduction"}, {"measurement": "effect on cell viability, MCF-7 cells relative to MDA cells", "setting": "MCF-7 cells; doxorubicin 1 μM", "value": "approximately two-fold"}, {"measurement": "cytotoxicity at 0.5 µM", "setting": "MDA-MB-231 cells; Homo sapiens, MDA-MB-231, doxorubicin 0.5 μM, read-out: reduction of cell viability", "value": 25, "unit": "%"}, {"measurement": "further reduction of cell viability versus 0.5 μM", "setting": "MDA-MB-231 cells; doxorubicin 1 μM", "value": "No further reduction"}, {"measurement": "Bcl-xL protein expression", "setting": "Bcl-xL [3]; MCF-7 cells", "value": "downregulated"}, {"measurement": "Bcl-xL protein expression", "setting": "Bcl-xL [3]; MDA cells", "value": "downregulated"}, {"measurement": "average tumor weight", "setting": "MDA tumor xenografts [4]", "value": "0.34 ± 0.09", "unit": "g"}, {"measurement": "ER-α protein level (normalized to β-actin)", "setting": "ER-α", "value": "decreased"}, {"measurement": "expression of Bcl-xL in tumors", "setting": "Bcl-xL [5]", "value": "decreased expression"}, {"measurement": "ceramide levels in tumor xenografts (ceramide positive cells counted)", "setting": "ceramides", "value": "6.2±1.3"}, {"measurement": "number of apoptotic cells (TUNEL)", "setting": "MDA tumor xenografts [6]", "value": "9.0±2.1"}, {"measurement": "survivin level in tumors", "setting": "survivin [7]", "value": "decreasing"}]}]}
